From US20080145372A1, “Bioreductively-Activated Prodrugs” (ANGIOGENE, PHARMACEUTICALS LIMITED, priority 2004, published 2008)

Tests used:
[1] = Pulse radiolysis: fragmentation of radical anions; settings: prodrug 40 μM, N2O-saturated 50% aqueous 2-propanol, pH 7.4-9.0
Experimental: The rate of fragmentation of intermediate radical anions produced by one-electron reduction is an important determinant of bioreductive prodrug action and can be measured by pulse radiolysis. The magnitude of the rate constant of radical fragmentation indicates the ability of the prodrugs to deliver the drug under hypoxia. The radicals were generated by reduction of the parent prodrugs (40 μM) by the 2-propanol radical generated radiolytically in an N2O-saturated 50% aqueous 2-propanol buffered to pH 7.4-9.0 with potassium phosphate (4 mM). Experiments were performed with a 6 Me V linear accelerator to generate an electron pulse of around 500 ns.

| SMILES | First-order rate constant k for the decay of radical anions produced by pulse radiolysis [1] | melting point [°C] |
| --- | --- | --- |
| CC(OC(=O)Nc1ccn([C@@H]2O[C@H](CO)[C@@H](O)[C@@H]2O)c(=O)n1)c1ccc([N+](=O)[O-])s1 (stereo partly drawn) [Example 1, N^4-(1-(5-nitrothien-2-yl)ethyl)oxycarbonyl-1-β-D-arabinofuranosylcytosine] | 49 s⁻¹ |  |
| O=C(Nc1ccn([C@@H]2O[C@H](CO)[C@@H](O)[C@@H]2O)c(=O)n1)OCc1ccc([N+](=O)[O-])s1 [Example 2, N^4-(5-nitrothien-2-yl)methoxycarbonyl-1-β-D-arabinofuranosylcytosine] | 12 s⁻¹ |  |
| CC(OC(=O)Nc1ccn([C@@H]2O[C@H](CO)[C@@H](O)C2(F)F)c(=O)n1)c1ccc([N+](=O)[O-])s1 (stereo partly shown) [Example 3, N^4-(1-(5-nitrothien-2-yl)ethyl)oxycarbonyl-2′,2′-difluoro-2′-deoxycytidine] | 102 s⁻¹ |  |
| CC(=O)OC[C@H]1O[C@@H](n2ccc(NC(=O)OC(C)c3ccc([N+](=O)[O-])s3)nc2=O)[C@@H](OC(C)=O)[C@@H]1OC(C)=O (stereo partly drawn) [Example 4, Tri-O-acetyl-N^4-(1-(5-nitrothien-2-yl)ethyl)oxycarbonyl-1-β-D-arabinofuranosylcytosine] | 245 s⁻¹ |  |
| Cn1c(COC(=O)Nc2ccn([C@@H]3O[C@H](CO)[C@@H](O)C3(F)F)c(=O)n2)cnc1[N+](=O)[O-] [Example 5, N^4-(2-nitro-1-methylimidazol-5-yl)methoxycarbonyl-2′,2′-difluoro-2′-deoxycytidine] | 18 s⁻¹ |  |
| O=C(Nc1ccn([C@@H]2O[C@H](CO)[C@@H](O)C2(F)F)c(=O)n1)OCc1ccc([N+](=O)[O-])s1 [Example 6, N^4-(5-nitrothien-2-yl)methoxycarbonyl-2′,2′-difluoro-2′-deoxycytidine] | 20 s⁻¹ | 144 to 148 |
| O=C(Nc1ncnc2c1ncn2[C@@H]1O[C@H](CO)[C@@H](O)[C@@H]1O)OCc1ccc([N+](=O)[O-])s1 [Example 8, N^6-(5-nitrothien-2-yl)methoxycarbonyl-9-β-D-arabinofuranosyladenine] | 148 s⁻¹ |  |
| CC(=O)O[C@@H]1[C@H](OC(C)=O)[C@@H](C)O[C@H]1n1cc(F)c(NC(=O)OCc2ccc([N+](=O)O)s2)nc1=O [Example 9, 5′-Deoxy-2′,3′-di-O-acetyl-5-fluoro-N^4-((5-nitrothien-2-yl)methoxycarbonyl)cytidine] | 22 s⁻¹ |  |
| O=C(Nc1nc(F)nc2c1ncn2[C@@H]1O[C@H](CO)[C@@H](O)[C@@H]1O)OCc1ccc([N+](=O)[O-])s1 [Example 10, 2-fluoro-N^6-(5-nitrothien-2-yl)methoxycarbonyl-9-O-D-arabinofuranosyladenine] | 144 s⁻¹ |  |
| CC(OC(=O)Nc1ccn([C@@H]2O[C@H](CO)[C@@H](O)[C@@H]2O)c(=O)n1)c1ccc([N+](=O)[O-])cc1 (stereo partly drawn) [Example 11, N^4-(1-(4-nitrophenyl)ethoxycarbonyl)-1-β-D-arabinofuranosylcytosine] | 0.4 s⁻¹ |  |
| O=C(Nc1ccn([C@@H]2O[C@H](CO)[C@@H](O)[C@@H]2O)c(=O)n1)OCc1ccc([N+](=O)[O-])o1 [Example 12, N^4-(5-nitrofuran-2-yl)methoxycarbonyl-1-β-D-arabinofuranosylcytosine] | 5.5 s⁻¹ |  |
| O=C(Nc1ccn([C@@H]2O[C@H](CO)[C@@H](O)[C@@H]2O)c(=O)n1)OCc1ccc([N+](=O)[O-])cc1 [N^4-(4-nitrophenyl)methoxycarbonyl-1-β-D-arabinofuranosylcytosine, reference compound] | too small to measure |  |
